Target: T1, IL-17A/A (Homo sapiens, UniProt Q16552)
T1 construct: purchased Genscript Z03228
T1 sequence (Q16552 24-155): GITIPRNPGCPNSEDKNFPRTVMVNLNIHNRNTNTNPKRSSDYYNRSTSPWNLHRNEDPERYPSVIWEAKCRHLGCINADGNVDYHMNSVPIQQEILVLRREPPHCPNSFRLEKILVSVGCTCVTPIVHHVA
Assay: IL-17A/A HEK-Blue Cell Assay
Type: cell-based
Conditions: HEK-Blue IL-17A reporter cell line, SEAP readout at A630, 20 hours incubation with IL-17A/A, top concentration 10 uM, 1 uM or 0.3 uM; for IC50: read-out: IL-17A/A inhibition (pIC50) (converted)
Description: The HEK-Blue IL-17A reporter cell line (Fisher #NC1408637) was used for cell-based IL-17A/A inhibition assays. Cells were grown and prepared for assays according to the manufacturer's instructions. This cell line consists of HEK 293 cells that were designed to expressed IL-17RA, IL-17RC, and the ActI adapter molecule, the combination of which, when stimulated by IL-17A/A activates a NFκB promoter and drives expression of a recombinant Secreted Alkaline Phosphatase (SEAP) geneprotein. Media from the cells is then added to a development reagent (Quanti-Blue Substrate, Fisher #NC9711613), and read at A630.
Compounds were titrated in DMSO, with a top final compound concentration of 10 uM, 1 uM, or 0.3 uM, and added to the cells immediately before adding IL-17A/A (Genscript #Z03228). The cells, compound, and IL-17A/A were then incubated for 20 hours before media was removed for SEAP analysis. The resulting inhibition curve was then analyzed using Graphpad Prism 7.0, and IC50 values were determined using a 4-parameter nonlinear fit. DMSO was added to a universal final concentration of 0.1% to optimize background.

IC50 [µM] | SMILES | IL-17A/A inhibition (pIC50)
0.1 to 10 | CCC(=O)N[C@@H](C(=O)N1CCN(C)CC1)[C@@H](C)c1ccc(NC(=O)[C@@H](NC(=O)C(F)(F)c2cccc(C)c2)C2CCCCC2)c(F)c1 [Compound 684] | 
 | CCC(=O)N[C@H](Cc1ccc(NC(=O)[C@H](CC2CCCCC2)NC(=O)c2ccnn2CC)c(F)c1)C(=O)N1CCN(C)CC1 [Compound 730] | X2b (compounds were evaluated up to 1 uM and inhibited activity at 1 uM by less than 20%)
< 0.01 | CCC(=O)N[C@@H](C(=O)N1CCN(C)CC1)[C@@H](C)c1ccc(NC(=O)[C@@H](NC(=O)C(F)(F)c2cccc(C#N)c2)C2CCCCCC2)c(F)c1 [Compound 260] | 
0.01 to 0.1 | CCC(=O)N[C@@H](C(=O)N1CCN(C)CC1)[C@@H](C)c1ccc(NC(=O)C(NC(=O)c2nonc2CC)C(C)C2CCC(F)(F)CC2)c(F)c1 (stereo partly drawn) [Compound 607] | 
< 0.01 | CCC(=O)N[C@@H](C(=O)N1CCN(C)CC1)[C@@H](C)c1ccc(NC(=O)[C@@H](NC(=O)c2coc3c2COC3)C2CCCCCC2)c(F)c1 [Compound 266] | 
 | CCC(=O)N[C@@H](C(=O)O)[C@@H](C)c1ccc(NC(=O)[C@@H](NC(=O)c2ccnn2CC)[C@H]2CC[C@H](C)CC2)c(F)c1 [Compound 661] | X3b (compounds were evaluated up to 0.3 uM and inhibited activity at 0.3 uM by less than 20%)
0.01 to 0.1 | CCC(=O)N[C@@H](C(=O)N1CCN(CCOC)CC1)[C@@H](C)c1ccc(NC(=O)[C@@H](NC(=O)c2ccnn2CC)C2CCCCC2)c(F)c1 [Compound 358] | 
< 0.01 | CCC(=O)N[C@@H](C(=O)N1CCN(C)CC1)[C@@H](C)c1ccc(NC(=O)C(NC(=O)c2nonc2CC)C2CCc3cc(F)ccc32)c(F)c1 (single isomer, unassigned) [Compound 570] | 
0.01 to 0.1 | CCn1nccc1C(=O)N[C@H](C(=O)Nc1ccc([C@H](C)[C@@H](NC(=O)c2cnsc2)C(=O)N2CCN(C)CC2)cc1F)C1CCCCC1 [Compound 305] | 
< 0.01 | CCC(=O)N[C@@H](C(=O)N1CCN(CC)[C@@H](C)C1)[C@@H](C)c1ccc(NC(=O)[C@@H](NC(=O)c2ccnn2CC)[C@H]2CC[C@H](C)CC2)c(F)c1 [Compound 427] | 
0.01 to 0.1 | CCn1nccc1C(=O)N[C@H](C(=O)Nc1ccc([C@H](C)[C@@H](NC(=O)c2cnnn2C)C(=O)N2CCN(C)CC2)cc1F)C1CCCCC1 [Compound 306] | 
0.01 to 0.1 | CCC(=O)N[C@@H](C(=O)N1CCN(C)CC1)[C@@H](C)c1ccc(NC(=O)[C@@H](NC(=O)C(F)(F)c2ccc(OC)nc2)C2CCCCCC2)c(F)c1 [Compound 219] | 
0.01 to 0.1 | CCc1nonc1C(=O)N[C@H](C(=O)Nc1ccc([C@H](C)C(NC(=O)C(C)F)C(=O)N2CCN(C)[C@@H](C)C2)cc1F)[C@H]1CC[C@H](C)CC1 (single isomer, unassigned) [Compound 595] | 
 | CCC(=O)N[C@H](Cc1ccc(NC(=O)[C@@H](NC(=O)C(F)(F)c2ccc(=O)n(C)c2)C2CCCCC2)c(F)c1)C(=O)N1CCN(C)CC1 [Compound 713] | X2b (compounds were evaluated up to 1 uM and inhibited activity at 1 uM by less than 20%)
 | CCC(=O)N[C@@H](C(=O)N1CCN(C)CC1)[C@@H](C)c1ccc(NC(=O)[C@@H](NC(=O)c2cnon2)[C@H]2CC[C@H](C)CC2)c(F)c1 [Compound 547] | X3b (compounds were evaluated up to 0.3 uM and inhibited activity at 0.3 uM by less than 20%)
0.1 to 10 | CCn1nccc1C(=O)N[C@H](C(=O)Nc1ccc([C@H](C)[C@@H](NC(=O)c2coc(C)n2)C(=O)N2CCN(C)CC2)cc1F)C1CCCCC1 [Compound 683] | 
0.01 to 0.1 | CCC(=O)N[C@@H](C(=O)N[C@@H](C)C1CC1)[C@@H](C)c1ccc(NC(=O)[C@@H](NC(=O)c2ccnn2CC)C2CCCCCC2)c(F)c1 [Compound 537] | 
0.01 to 0.1 | CCn1nccc1C(=O)N[C@H](C(=O)Nc1ccc([C@H](C)[C@@H](NC(=O)OC2CC2)C(=O)N2CCN(C)CC2)cc1F)[C@H]1CC[C@H](C)CC1 [Compound 484] | 
0.01 to 0.1 | CCn1nccc1C(=O)N[C@H](C(=O)Nc1ccc([C@H](C)[C@@H](NC(=O)c2cnns2)C(=O)N2CCNC3(CC3)C2)cc1F)[C@H]1CC[C@H](C)CC1 [Compound 438] | 
0.01 to 0.1 | CCC(=O)N[C@@H](C(=O)N1CCN(C)CC1)[C@@H](C)c1ccc(NC(=O)[C@@H](NC(=O)C(F)(F)c2cncc(OC)c2)[C@H]2CC[C@H](C)CC2)c(F)c1 [Compound 281] | 
0.1 to 10 | CCn1nccc1C(=O)N[C@H](C(=O)Nc1ccc([C@H](C)[C@@H](NC(=O)c2cncn2C)C(=O)N2CCN(C)CC2)cc1F)C1CCCCC1 [Compound 657] | 

IC50 [µM] | SMILES | IL-17A/A inhibition (pIC50)
0.01 to 0.1 | CCC(=O)N[C@H](Cc1ccc(NC(=O)[C@@H](NC(=O)c2ccnn2C(C)C)C2CCCCCC2)c(F)c1)C(=O)N1CCN(C)CC1 [Compound 238] | 
0.01 to 0.1 | CCC(=O)N[C@@H](C(=O)N1CCN(C)CC1)[C@@H](C)c1ccc(NC(=O)[C@@H](NC(=O)c2nnnn2CC)[C@H]2CC[C@H](C)CC2)c(F)c1 [Compound 527] | 
< 0.01 | CCn1nccc1C(=O)N[C@H](C(=O)Nc1ccc([C@H](C)[C@@H](NC(=O)N(C)C2CC2)C(=O)N2CCN(C)CC2)cc1F)[C@H]1CC[C@H](C)CC1 [Compound 488] | 
0.1 to 10 | CCC(=O)N[C@@H](C(=O)N1CCN(C)CC1)[C@@H](C)c1ccc(NC(=O)[C@@H](NC(=O)C(F)(F)c2ccccc2C#N)C2CCCCC2)c(F)c1 [Compound 638] | 
 | CCC(=O)N[C@H](Cc1ccc(NC(=O)[C@@H](NC(=O)Cc2c[nH]cn2)C2CCCCC2)c(F)c1)C(=O)N1CCN(C)CC1 [Compound 776] | X1b (compounds were evaluated up to 10 uM and inhibited activity at 10 uM by less than 20%)
< 0.01 | CCC(=O)N[C@@H](C(=O)N1CCN(C)C[C@H]1C)[C@@H](C)c1ccc(NC(=O)[C@@H](NC(=O)c2ccnn2CC)[C@H]2CC[C@H](C)CC2)c(F)c1 [Compound 430] | 
0.1 to 10 | CCC(=O)N[C@H](Cc1ccc(NC(=O)[C@@H](NC(=O)C(F)(F)c2ccc(=O)[nH]c2)C2CCCCC2)c(F)c1)C(=O)N1CCN(C)CC1 [Compound 217] | 
< 0.01 | CCC(=O)N[C@@H](C(=O)N1CCN(C)CC1)[C@@H](C)c1ccc(NC(=O)[C@@H](NC(=O)c2ccnn2CC)C2CCCCCC2)c(F)c1 [Compound 228] | 
 | CCC(=O)N[C@@H](C(=O)N1CCN(C)CC1)[C@@H](C)c1ccc(NC(=O)[C@H](Cc2ccccc2Cl)NC(=O)c2ccnn2CC)c(F)c1 [Compound 742] | X2a (compounds were evaluated up to 1 uM and did not inhibit activity by >80%, however they showed some activity at 1 uM (less than 80% and more than 20%))
0.01 to 0.1 | CCC(=O)N[C@@H](C(=O)N1CCC(C)CC1)[C@@H](C)c1ccc(NC(=O)[C@@H](NC(=O)c2ccnn2CC)[C@H]2CC[C@H](C)CC2)c(F)c1 [Compound 370] | 
 | CCC(=O)N[C@H](Cc1ccc(NC(=O)[C@@H](NC(=O)c2cnc(C(=O)NC)s2)C2CCCCC2)c(F)c1)C(=O)N1CCN(C)CC1 [Compound 699] | X2b (compounds were evaluated up to 1 uM and inhibited activity at 1 uM by less than 20%)
0.01 to 0.1 | CCC(=O)N[C@@H](C(=O)N1CCN(C)CC1)[C@@H](C)c1ccc(NC(=O)[C@@H](NC(=O)c2conc2C2CC2)[C@H]2CC[C@H](C)CC2)c(F)c1 [Compound 279] | 
0.01 to 0.1 | CCn1nccc1C(=O)N[C@H](C(=O)Nc1ccc([C@H](C)[C@@H](NC(=O)OC)C(=O)N2CCN(C)CC2)cc1F)[C@H]1CC[C@H](C)CC1 [Compound 483] | 
< 0.01 | CCC(=O)N[C@@H](C(=O)N1CCN(C)[C@@H](C)C1)[C@@H](C)c1ccc(NC(=O)[C@@H](NC(=O)c2nonc2CC)[C@H]2CC[C@H](C)CC2)c(F)c1 [Compound 460] | 
0.01 to 0.1 | CCn1nccc1C(=O)N[C@H](C(=O)Nc1ccc(C[C@@H](Nc2ncnc3cnccc23)C(=O)N2CCN(C)CC2)cc1F)C1CCCCC1 [Compound 320] | 
< 0.01 | CCC(=O)N[C@@H](C(=O)N1CCN(C)CC1)[C@@H](C)c1ccc(NC(=O)[C@@H](NC(=O)c2ccnn2CC2CC2)C2CCCCCC2)c(F)c1 [Compound 271] | 
< 0.01 | CCC(=O)N[C@@H](C(=O)N1CCN(Cc2ccccn2)CC1)[C@@H](C)c1ccc(NC(=O)[C@@H](NC(=O)c2ccnn2CC)C2CCCCCC2)c(F)c1 [Compound 348] | 
< 0.01 | CCC(=O)N[C@@H](C(=O)N1CCC(C)(O)CC1)[C@@H](C)c1ccc(NC(=O)[C@@H](NC(=O)C(F)(F)c2cccc(C#N)c2)C2CCCCC2)c(F)c1 [Compound 364] | 
< 0.01 | CCn1nccc1C(=O)N[C@H](C(=O)Nc1ccc([C@H](C)[C@@H](NC(=O)CC2CC2)C(=O)N2CCN(C)CC2)cc1F)C1CCCCCC1 [Compound 340] | 
0.01 to 0.1 | CCn1nccc1C(=O)N[C@H](C(=O)Nc1ccc([C@H](C)[C@@H](NC(=O)CC2CC2)C(=O)N2CCN(C)CC2)cc1F)[C@H]1CC[C@H](C)CC1 [Compound 396] | 
 | CCC(=O)N[C@@H](C(=O)N1CCN(C)CC1)[C@@H](C)c1ccc(NC(=O)C(NC(=O)c2nonc2CC)C(C)C2CCC(F)(F)CC2)c(F)c1 (single isomer, unassigned) [Compound 590] | X3b (compounds were evaluated up to 0.3 uM and inhibited activity at 0.3 uM by less than 20%)

Reference: patent US12421212B2, “Substituted benzenecarboxamides as IL-17A modulators” (DiCE Alpha, Inc., priority 2019, dated 2025)
